This is an account of results in PMC4927298, “Olfactory channels associated with the Drosophila maxillary palp mediate short- and long-range attraction” (eLife, 2016).

One test has as its target T1, Or85d (pb3B) (Drosophila melanogaster, UniProt Q9VHQ2).
T1 construct: native receptor in pb3B maxillary palp neuron of wild-type flies; with Odorant receptor coreceptor
T1 sequence (Q9VHQ2 1-412): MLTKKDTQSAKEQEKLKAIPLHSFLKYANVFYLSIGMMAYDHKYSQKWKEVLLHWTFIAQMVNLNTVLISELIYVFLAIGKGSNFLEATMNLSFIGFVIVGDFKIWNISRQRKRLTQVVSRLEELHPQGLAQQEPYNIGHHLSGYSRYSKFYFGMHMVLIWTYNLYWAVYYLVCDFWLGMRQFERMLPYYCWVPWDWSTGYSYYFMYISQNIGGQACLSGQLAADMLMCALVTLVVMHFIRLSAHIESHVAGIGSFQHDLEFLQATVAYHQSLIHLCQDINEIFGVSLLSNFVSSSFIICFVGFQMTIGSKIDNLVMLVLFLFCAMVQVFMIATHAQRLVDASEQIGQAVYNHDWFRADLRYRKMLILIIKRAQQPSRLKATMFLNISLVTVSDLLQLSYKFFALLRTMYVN
T1 sequence (Q9VNB5 1-486 partner): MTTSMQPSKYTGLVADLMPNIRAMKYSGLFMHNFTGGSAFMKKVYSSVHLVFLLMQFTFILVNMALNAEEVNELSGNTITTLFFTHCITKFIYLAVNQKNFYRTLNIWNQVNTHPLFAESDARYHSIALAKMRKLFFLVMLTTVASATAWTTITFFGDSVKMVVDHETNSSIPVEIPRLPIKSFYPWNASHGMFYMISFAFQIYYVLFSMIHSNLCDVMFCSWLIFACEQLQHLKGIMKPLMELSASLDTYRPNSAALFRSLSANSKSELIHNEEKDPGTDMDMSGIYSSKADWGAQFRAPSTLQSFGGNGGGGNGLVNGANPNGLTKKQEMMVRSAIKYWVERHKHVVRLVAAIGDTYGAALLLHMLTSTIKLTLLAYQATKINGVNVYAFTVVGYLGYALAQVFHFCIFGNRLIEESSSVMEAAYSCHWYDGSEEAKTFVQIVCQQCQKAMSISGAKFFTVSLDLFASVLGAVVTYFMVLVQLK
Description: single sensillum recording (SSR), dose-response. The note with it: native pb3B neuron, agonist; odor dilution. The source says: single sensillum recording (SSR), dose-response on Or85d (pb3B)

The target in a further test is T2, Or46a (pb2B) (Drosophila melanogaster, UniProt P81919).
T2 construct: native receptor in pb2B maxillary palp neuron of wild-type flies; with Odorant receptor coreceptor
T2 sequence (P81919 1-381): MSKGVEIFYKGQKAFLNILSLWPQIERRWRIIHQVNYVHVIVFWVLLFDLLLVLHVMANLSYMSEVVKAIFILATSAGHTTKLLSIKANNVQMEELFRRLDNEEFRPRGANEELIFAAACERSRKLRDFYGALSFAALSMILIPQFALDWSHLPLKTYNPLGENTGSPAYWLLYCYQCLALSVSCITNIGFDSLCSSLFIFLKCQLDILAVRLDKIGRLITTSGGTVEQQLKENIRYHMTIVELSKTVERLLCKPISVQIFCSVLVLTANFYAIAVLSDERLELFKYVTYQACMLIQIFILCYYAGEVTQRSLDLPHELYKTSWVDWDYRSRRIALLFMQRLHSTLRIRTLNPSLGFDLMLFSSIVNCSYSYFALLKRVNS
T2 sequence (Q9VNB5 1-486 partner): T1 sequence (Q9VNB5 1-486 partner)
The experiment in a line: single sensillum recording (SSR), dose-response. As to conditions: native pb2B neuron, agonist; odor dilution. The source says: single sensillum recording (SSR), dose-response on Or46a (pb2B)

For the next test, the target named is T3, Or71a (pb1B) (Drosophila melanogaster, UniProt Q9VUK5).
T3 construct: native receptor in pb1B maxillary palp neuron of wild-type flies; with Odorant receptor coreceptor
T3 sequence (Q9VUK5 1-378): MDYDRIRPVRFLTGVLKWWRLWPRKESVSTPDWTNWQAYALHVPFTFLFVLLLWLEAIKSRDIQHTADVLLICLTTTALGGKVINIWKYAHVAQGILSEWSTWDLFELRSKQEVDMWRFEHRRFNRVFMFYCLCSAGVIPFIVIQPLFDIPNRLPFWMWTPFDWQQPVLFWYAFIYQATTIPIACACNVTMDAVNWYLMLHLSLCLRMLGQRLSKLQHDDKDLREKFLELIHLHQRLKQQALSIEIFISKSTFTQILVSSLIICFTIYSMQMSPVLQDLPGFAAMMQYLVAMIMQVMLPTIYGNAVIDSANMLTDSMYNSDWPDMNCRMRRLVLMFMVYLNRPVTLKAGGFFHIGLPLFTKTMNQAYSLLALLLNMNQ
T3 sequence (Q9VNB5 1-486 partner): T1 sequence (Q9VNB5 1-486 partner)
The experiment in a line: single sensillum recording (SSR), dose-response. As to conditions: native pb1B neuron, agonist; odor dilution. An excerpt: single sensillum recording (SSR), dose-response on Or71a (pb1B)

Another test addresses T4, Or59c (pb3A) (Drosophila melanogaster, UniProt Q9W1P7).
T4 construct: native receptor in pb3A maxillary palp neuron of wild-type flies; with Odorant receptor coreceptor
T4 sequence (Q9W1P7 1-411): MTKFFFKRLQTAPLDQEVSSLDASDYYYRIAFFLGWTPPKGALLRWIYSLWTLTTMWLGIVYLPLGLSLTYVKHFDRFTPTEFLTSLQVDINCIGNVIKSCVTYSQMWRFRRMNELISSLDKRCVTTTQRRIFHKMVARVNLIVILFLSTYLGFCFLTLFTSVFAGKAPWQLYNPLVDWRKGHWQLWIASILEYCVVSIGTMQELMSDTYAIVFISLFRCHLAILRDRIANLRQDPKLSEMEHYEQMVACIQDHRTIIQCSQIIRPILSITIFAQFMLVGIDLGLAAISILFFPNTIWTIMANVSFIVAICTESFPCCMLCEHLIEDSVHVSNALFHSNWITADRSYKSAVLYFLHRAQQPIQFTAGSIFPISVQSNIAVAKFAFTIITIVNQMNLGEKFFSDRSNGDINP
T4 sequence (Q9VNB5 1-486 partner): T1 sequence (Q9VNB5 1-486 partner)
The experiment in a line: single sensillum recording (SSR), dose-response. The note with it: native pb3A neuron, agonist; odor dilution. An excerpt:
single sensillum recording (SSR), dose-response on Or59c (pb3A)

For another test, the target named is T5, Or85a (Drosophila melanogaster, UniProt Q9VHS4).
T5 construct: native receptor in antennal ab2B neuron of wild-type flies; with Odorant receptor coreceptor
T5 sequence (Q9VHS4 1-397): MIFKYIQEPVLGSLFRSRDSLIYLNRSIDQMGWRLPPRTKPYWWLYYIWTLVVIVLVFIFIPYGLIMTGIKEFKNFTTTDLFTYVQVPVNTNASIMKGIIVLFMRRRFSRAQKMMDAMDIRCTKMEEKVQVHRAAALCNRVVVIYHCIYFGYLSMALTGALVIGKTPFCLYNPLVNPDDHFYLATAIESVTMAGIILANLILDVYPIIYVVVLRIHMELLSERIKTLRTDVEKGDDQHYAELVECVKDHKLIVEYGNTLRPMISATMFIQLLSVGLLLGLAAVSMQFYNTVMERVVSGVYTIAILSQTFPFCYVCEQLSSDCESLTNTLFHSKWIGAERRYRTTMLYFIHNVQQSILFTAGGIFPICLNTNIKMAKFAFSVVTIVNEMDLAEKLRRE
T5 sequence (Q9VNB5 1-486 partner): T1 sequence (Q9VNB5 1-486 partner)
The experiment in a line: SSR and GC-SSR, dose-response. The note with it: native antennal ab2B neuron, agonist; odor dilution.

For another test, the target named is T6, Or67a (Drosophila melanogaster, UniProt Q9VT08).
T6 construct: native receptor in antennal neuron (ab10) of wild-type flies; with Odorant receptor coreceptor
T6 sequence (Q9VT08 1-407): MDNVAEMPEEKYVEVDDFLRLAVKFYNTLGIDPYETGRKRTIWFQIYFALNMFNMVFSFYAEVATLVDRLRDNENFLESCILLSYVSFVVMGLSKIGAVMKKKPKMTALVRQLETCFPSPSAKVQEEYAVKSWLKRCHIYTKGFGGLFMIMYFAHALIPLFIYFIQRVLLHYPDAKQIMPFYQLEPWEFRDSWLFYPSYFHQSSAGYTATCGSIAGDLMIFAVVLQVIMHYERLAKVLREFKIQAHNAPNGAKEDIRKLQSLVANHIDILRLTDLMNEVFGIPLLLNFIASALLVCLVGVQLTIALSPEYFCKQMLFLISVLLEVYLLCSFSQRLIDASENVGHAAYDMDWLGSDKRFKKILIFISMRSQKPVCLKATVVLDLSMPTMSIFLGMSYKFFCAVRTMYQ
T6 sequence (Q9VNB5 1-486 partner): T1 sequence (Q9VNB5 1-486 partner)
The experiment in a line: SSR and GC-SSR, dose-response. As to conditions: native antennal neuron, agonist; odor dilution.

The target of the next test is T7, Or42a (pb1A) (Drosophila melanogaster, UniProt Q9V9I2).
T7 construct: native receptor in pb1A maxillary palp neuron of wild-type flies; neuron-receptor match not tested by expression; with Odorant receptor coreceptor
T7 sequence (Q9V9I2 1-406): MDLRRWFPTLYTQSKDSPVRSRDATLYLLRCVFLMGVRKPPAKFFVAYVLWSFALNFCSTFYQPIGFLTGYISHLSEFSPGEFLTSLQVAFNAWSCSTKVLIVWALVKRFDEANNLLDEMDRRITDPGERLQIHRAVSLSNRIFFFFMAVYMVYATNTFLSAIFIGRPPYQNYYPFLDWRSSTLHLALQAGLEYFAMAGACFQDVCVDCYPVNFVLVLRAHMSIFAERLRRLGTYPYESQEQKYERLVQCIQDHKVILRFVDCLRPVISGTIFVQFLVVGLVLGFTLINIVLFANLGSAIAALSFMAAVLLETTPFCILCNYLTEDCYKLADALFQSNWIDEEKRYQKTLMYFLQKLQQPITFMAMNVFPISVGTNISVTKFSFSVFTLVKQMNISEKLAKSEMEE
T7 sequence (Q9VNB5 1-486 partner): T1 sequence (Q9VNB5 1-486 partner)
The experiment in a line: single sensillum recording (SSR), dose-response. As to conditions: native pb1A neuron, agonist; odor dilution. The source says:
single sensillum recording (SSR), dose-response on Or42a (pb1A)

Regarding `CC(=O)OCCc1ccccc1` [2-Phenethyl acetate], the Detection threshold at Or85d (pb3B) is recorded as 10^-7 dilution.

As for `Oc1ccccc1` [Phenol], the Detection threshold on Or46a (pb2B) is given as 10^-7 dilution.

Regarding `CCc1ccc(O)c(OC)c1` [4-ethylguaiacol], on Or71a (pb1B), the Detection threshold is 10^-7 dilution.

Consider `CCCCOC(=O)CC(C)O` (stereo not drawn) [Butyl 3-hydroxy butyrate], for which the Detection threshold at Or59c (pb3A) is on record as 10^-4 dilution; on Or85a, 10^-5 dilution.

Take `CCC(=O)OCCc1ccccc1` [Phenethyl propionate]: the figures for the Detection threshold at Or85d (pb3B) and at Or67a were 10^-7 dilution and 10^-5 dilution, respectively.

As for `C=CCc1ccc(OC)c(OC)c1` [Methyleugenol], the Detection threshold on Or71a (pb1B) is listed as 10^-7 dilution.

Regarding `C=CCC(=O)CC` [5-hexen-3-one], the Detection threshold on Or42a (pb1A) was 10^-7 dilution.
